From US9018206B2, “Carboxamide compounds and their use as calpain inhibitors” (AbbVie Deutschland GmbH & Co. KG, priority 2009, dated 2015) come the findings set out here.

A value given as a limit tells only on which side of the number the result lay.

Holding throughout (assay type): biochemical
Assay [1] has as its target T1, recombinant human cathepsin S (Homo sapiens, UniProt P25774).
T1 construct: purchased Calbiochem 219343; host or cells: E. coli
Put plainly: Cathepsin S enzyme inhibition in vitro (kinetic fluorescence assay). The conditions noted are these: Ki(cathepsin S)/Ki(calpain) ratio. How it is done: (§1) Testing for blockade of the corresponding enzymic activities was carried out by means of kinetic fluorescence assays (excitation 390 nm, emission 460 nm).
(§2) Apparent Ki values were calculated from the experimentally determined IC50 values by the Cheng-Prussoff relation assuming a reversible competitive enzyme inhibition. The Km values of the substrates used under the assay conditions indicated above were: 90 μM (Z-Phe-Arg-AMC, cathepsin B), 10 μM (Z-Gly-Pro-Arg-AMC, cathepsin K), 2 μM (Z-Phe-Arg-AMC, cathepsin L), and 30 μM (Z-Val-Val-Arg-AMC, cathepsin S).
(§3) The indicated Ki values are averages of the inhibition constants calculated on the basis of 2 to 4 independent dose-effect plots.
(§4) • 20 nM calpain-I—isolated from human erythrocytes (Calbiochem #208713), 100 μM Suc-Leu-Tyr-AMC (Bachem #I-1355) as substrate in buffer with 62 mM imidazole, 0.3 mM CaCl2, 0.10% CHAPS, 0.05% BSA, 1 mM DTT at pH 7.3 and room temperature. 1. Cathepsin B: • 0.25 nM cathepsin B—isolated from human liver (Calbiochem #219362), 100 μM Z-Phe-Arg-AMC (Bachem #I-1160) as substrate 50 mM MES, 2 mM EDTA, 0.05% Brij 35, 2.5 mM L-cysteine, pH 6.0, room temperature. 3. Cathepsin K: • 3 nM cathepsin K activated from recombinant human procathepsin K from E. coli (Calbiochem #342001), 10 μM Z-Gly-Pro-Arg-AMC (Biomol #P-142) as substrate in 50 mM MES, 2 mM EDTA, 0.05% Brij 35, 2.5 mM L-cysteine, pH 6.0, room temperature. 4. Cathepsin L: • 1 nM cathepsin L—isolated from human liver (Calbiochem #219402), 2 μM Z-Phe-Arg-AMC (Bachem #I-1160) as substrate in 50 mM MES, 2 mM EDTA, 0.05% Brij 35, 2.5 mM L-cysteine, pH 6.0, room temperature. 5. Cathepsin S: • 0.5 nM recombinant human cathepsin S from E. coli (Calbiochem #219343), 20 μM Z-Val-Val-Arg-AMC (Bachem #I-1540) as substrate in 50 mM MES, 2 mM EDTA, 0.05% Brij 35, 2.5 mM L-cysteine, pH 6.0, room temperature.

The target of assay [2] is T2, cathepsin K activated from recombinant human procathepsin K (Homo sapiens, UniProt P43235).
T2 construct: purchased Calbiochem 342001; host or cells: E. coli
T2 sequence (P43235 115-329): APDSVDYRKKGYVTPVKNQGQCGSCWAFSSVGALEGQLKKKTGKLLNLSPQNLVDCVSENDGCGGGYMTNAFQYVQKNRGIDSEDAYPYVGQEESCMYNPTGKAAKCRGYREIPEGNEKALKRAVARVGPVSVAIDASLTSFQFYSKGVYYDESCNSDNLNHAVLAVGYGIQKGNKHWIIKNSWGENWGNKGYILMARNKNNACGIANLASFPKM
As to the kind of experiment: Cathepsin K enzyme inhibition in vitro (kinetic fluorescence assay). The following applies: Ki(cathepsin K)/Ki(calpain) ratio. As to the method: as §1, §2, §3, §4

The target in assay [3] is T3, cathepsin B isolated from human liver (Homo sapiens, UniProt P07858).
T3 construct: cathepsin B—isolated from human liver; purchased Calbiochem 219362; host or cells: human liver (tissue-derived)
As to the kind of experiment: Cathepsin B enzyme inhibition in vitro (kinetic fluorescence assay). The following applies: Ki(cathepsin B)/Ki(calpain) ratio. How it is done: as §1, §2, §3, §4

For assay [4], the target named is T4, calpain-I isolated from human erythrocytes (Homo sapiens, UniProt P07384).
T4 construct: calpain-I—isolated from human erythrocytes; purchased Calbiochem 208713; host or cells: human erythrocytes (tissue-derived)
T4 sequence (P07384 1-714): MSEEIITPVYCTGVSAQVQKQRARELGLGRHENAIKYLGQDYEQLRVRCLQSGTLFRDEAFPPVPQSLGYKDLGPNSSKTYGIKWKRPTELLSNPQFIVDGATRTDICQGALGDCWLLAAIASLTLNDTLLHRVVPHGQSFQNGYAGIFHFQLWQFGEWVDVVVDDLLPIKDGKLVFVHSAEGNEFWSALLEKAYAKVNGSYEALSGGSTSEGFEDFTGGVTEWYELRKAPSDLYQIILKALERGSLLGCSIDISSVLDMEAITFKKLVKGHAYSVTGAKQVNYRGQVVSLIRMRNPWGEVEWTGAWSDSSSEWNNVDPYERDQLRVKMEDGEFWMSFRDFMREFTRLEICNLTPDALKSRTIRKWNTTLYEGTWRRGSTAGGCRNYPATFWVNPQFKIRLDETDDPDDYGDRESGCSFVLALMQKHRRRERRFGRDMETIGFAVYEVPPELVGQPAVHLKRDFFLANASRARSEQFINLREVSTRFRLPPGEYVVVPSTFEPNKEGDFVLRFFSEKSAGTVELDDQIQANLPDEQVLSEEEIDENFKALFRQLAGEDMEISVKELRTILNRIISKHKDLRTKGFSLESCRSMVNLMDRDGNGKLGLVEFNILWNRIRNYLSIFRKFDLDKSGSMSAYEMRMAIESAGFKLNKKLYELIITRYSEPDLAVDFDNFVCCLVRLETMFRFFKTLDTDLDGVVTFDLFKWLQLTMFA
T4 sequence (P04632 1-268 partner): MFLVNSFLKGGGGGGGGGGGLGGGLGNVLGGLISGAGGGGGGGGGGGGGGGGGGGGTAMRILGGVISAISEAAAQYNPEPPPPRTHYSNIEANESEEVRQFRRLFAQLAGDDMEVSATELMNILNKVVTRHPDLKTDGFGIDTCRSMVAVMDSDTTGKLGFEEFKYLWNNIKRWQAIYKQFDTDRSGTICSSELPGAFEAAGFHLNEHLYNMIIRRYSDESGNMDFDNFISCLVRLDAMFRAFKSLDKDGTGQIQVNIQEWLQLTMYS
As to the kind of experiment: Calpain I enzyme inhibition in vitro (kinetic fluorescence assay). The conditions noted are these: apparent Ki from IC50 (Cheng-Prussoff); 20 nM calpain-I, 100 μM Suc-Leu-Tyr-AMC, pH 7.3, room temperature. How it is done:
as §1, §2, §3, §4

T1 sequence (P25774 115-331): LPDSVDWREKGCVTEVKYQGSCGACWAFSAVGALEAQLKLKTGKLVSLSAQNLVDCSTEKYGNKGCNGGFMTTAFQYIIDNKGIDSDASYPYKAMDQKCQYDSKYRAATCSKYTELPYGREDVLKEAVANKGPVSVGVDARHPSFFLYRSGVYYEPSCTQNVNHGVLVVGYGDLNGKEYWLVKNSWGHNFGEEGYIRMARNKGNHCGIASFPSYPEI

With `O=C(NCCCc1ccccn1)C(=O)C(Cc1ccccc1)NC(=O)[C@H]1CCC(=O)N1Cc1ccccc1` (mixture of isomers) [Example 32, (2R)-1-Benzyl-N-(3,4-dioxo-1-phenyl-4-(3-(pyridin-2-yl)propylamino)butan-2-yl)-5-oxopyrrolidine-2-carboxamide], in assay [1], the “Sel cat. S” value is “++ (30<Ki(cathepsin B)/Ki(calpain)≦100)”. The “Sel cat. K” value in assay [2] is recorded as “+ (5<Ki(cathepsin K)/Ki(calpain)≦10)”. Further, the “Sel cat. B” value in assay [3] is “++ (10<Ki(cathepsin B)/Ki(calpain)≦30)”. Also, the Ki in assay [4] fell in the range of 50 to 100 nM.
Turning to `CN1C[C@H](C(=O)NC(Cc2ccccc2)C(=O)C(N)=O)N(Cc2ccccc2)C1=O` (stereo partly drawn) [Example 18, (4R)—N-(4-Amino-3,4-dioxo-1-phenylbutan-2-yl)-3-benzyl-1-methyl-2-oxoimidazolidine-4-carboxamide], in assay [3], the “Sel cat. B” value is “+++ (Ki(cathepsin B)/Ki(calpain) ratio of >30)”. In assay [4], the Ki lay within 100 to 600 nM.
As to `NC(=O)C(=O)C(Cc1ccccc1)NC(=O)[C@H]1CCC(=O)N1Cc1cccc2ccccc12` (stereo partly drawn) [Example 11, (2R)—N-(4-Amino-3,4-dioxo-1-phenylbutan-2-yl)-1-(naphthalen-1-ylmethyl)-5-oxopyrrolidine-2-carboxamide], in assay [1], the “Sel cat. S” value is “++ (30<Ki(cathepsin B)/Ki(calpain)≦100)”. In assay [2], the “Sel cat. K” value is given as “+++ (Ki(cathepsin K)/Ki(calpain) ratio of >30)”. Moreover, in assay [3], the “Sel cat. B” value was “++ (10<Ki(cathepsin B)/Ki(calpain)≦30)”. Besides, the Ki in assay [4] was less than 50 nM.
As to `O=C(NC[C@H]1CCCO1)C(=O)C(Cc1ccccc1)NC(=O)[C@H]1CCC(=O)N1Cc1ccccc1` (mixture of isomers) [Example 69, (2R)-1-Benzyl-N-(3,4-dioxo-1-phenyl-4-(((R)-tetrahydrofuran-2-yl)methylamino)-butan-2-yl)-5-oxopyrrolidine-2-carboxamide], the Ki in assay [4] was in the range of 100 to 600 nM.
Same read-out and setting: the value for `CCNC(=O)C(=O)C(Cc1ccccc1)NC(=O)[C@H]1CCC(=O)N1Cc1ccc(C(F)(F)F)cc1` (mixture of isomers) [Example 55, (2R)—N-(4-(ethylamino)-3,4-dioxo-1-phenylbutan-2-yl)-5-oxo-1-(4-(trifluoromethyl)benzyl)pyrrolidine-2-carboxamide] was 100 to 600 nM.
On to `NC(=O)C(=O)C(Cc1ccccc1)NC(=O)[C@H]1CCC(=O)N1Cc1ccc2ccccc2c1` (stereo partly drawn) [Example 12, (2R)—N-(4-Amino-3,4-dioxo-1-phenylbutan-2-yl)-1-(naphthalen-2-ylmethyl)-5-oxopyrrolidine-2-carboxamide], for which, in assay [1], the “Sel cat. S” value is “+ (10<Ki(cathepsin S)/Ki(calpain)≦30)”. Moreover, the “Sel cat. K” value in assay [2] is listed as “+ (5<Ki(cathepsin K)/Ki(calpain)≦10)”. For the same compound, the Ki in assay [4] is less than 50 nM.
For `COc1cccc(C(F)(F)F)c1CN1C(=O)CC[C@@H]1C(=O)NC(Cc1ccccc1)C(=O)C(=O)NC1CC1` (mixture of isomers) [Example 74, (2R)—N-(4-(Cyclopropylamino)-3,4-dioxo-1-phenylbutan-2-yl)-1-(2-methoxy-6-(trifluoromethyl)benzyl)-5-oxopyrrolidine-2-carboxamide], the Ki in assay [4] was in the range of 100 to 600 nM.
In the case of `O=C(NCCc1ccccn1)C(=O)C(Cc1ccccc1)NC(=O)[C@H]1CCC(=O)N1Cc1ccccc1` (mixture of isomers) [Example 31, (2R)-1-Benzyl-N-(3,4-dioxo-1-phenyl-4-(2-(pyridin-2-yl)-ethylamino)butan-2-yl)-5-oxopyrrolidine-2-carboxamide], the “Sel cat. S” value in assay [1] is recorded as “++ (30<Ki(cathepsin B)/Ki(calpain)≦100)”. For the same compound, the “Sel cat. K” value in assay [2] is on record as “++ (10<Ki(cathepsin B)/Ki(calpain)≦30)”. Moreover, the Ki in assay [4] fell in the range of 100 to 600 nM.
With `O=C(NCc1cncs1)C(=O)C(Cc1ccccc1)NC(=O)[C@H]1CCC(=O)N1Cc1ccccc1` (mixture of isomers) [Example 52, (2R)-1-Benzyl-N-(3,4-dioxo-1-phenyl-4-(thiazol-5-ylmethylamino)butan-2-yl)-5-oxopyrrolidine-2-carboxamide], the Ki in assay [4] was 100 to 600 nM.
As to `O=C(NCCc1ccsc1)C(=O)C(Cc1ccccc1)NC(=O)[C@H]1CCC(=O)N1Cc1ccccc1` (single isomer, unassigned) [Example 71], the Ki in assay [4] is less than 50 nM.
As for `O=C(C(=O)N1CCOCC1)C(Cc1ccccc1)NC(=O)[C@H]1CCC(=O)N1Cc1ccccc1` (mixture of isomers) [Example 54, (2R)-1-Benzyl-N-(4-morpholino-3,4-dioxo-1-phenylbutan-2-yl)-5-oxopyrrolidine-2-carboxamide], the Ki in assay [4] was 100 to 600 nM.
The same measure, in the same setting: the value for `O=C(NCc1ccco1)C(=O)C(Cc1ccccc1)NC(=O)[C@H]1CCC(=O)N1Cc1ccccc1` (mixture of isomers) [Example 72, (2R)-1-Benzyl-N-(4-(furan-2-ylmethylamino)-3,4-dioxo-1-phenylbutan-2-yl)-5-oxopyrrolidine-2-carboxamide] was 50 to 100 nM.
In the case of `NC(=O)C(=O)C(Cc1ccccc1)NC(=O)c1cccc(=O)n1Cc1ccccc1` (stereo not shown) [Example 4, N-(4-Amino-3,4-dioxo-1-phenylbutan-2-yl)-1-benzyl-6-oxo-1,6-dihydropyridine-2-carboxamide], in assay [1], the “Sel cat. S” value is listed as “+ (10<Ki(cathepsin S)/Ki(calpain)≦30)”. The “Sel cat. B” value in assay [3] is given as “++ (10<Ki(cathepsin B)/Ki(calpain)≦30)”. In addition, in assay [4], the Ki was in the range of 50 to 100 nM.
Regarding `O=C(NC[C@@H]1CCCO1)C(=O)C(Cc1ccccc1)NC(=O)[C@H]1CCC(=O)N1Cc1ccccc1` (stereo partly drawn) [Example 70, (2R)-1-Benzyl-N-(3,4-dioxo-1-phenyl-4-(((S)-tetrahydrofuran-2-yl)methylamino)-butan-2-yl)-5-oxopyrrolidine-2-carboxamide], in assay [4], the Ki is 50 to 100 nM.
Same read-out and setting: the value for `O=C(NCc1nc2ccccc2s1)C(=O)C(Cc1ccccc1)NC(=O)[C@H]1CCC(=O)N1Cc1ccccc1` (stereo partly drawn) [Example 53, (2R)—N-(4-(Benzo[d]thiazol-2-ylmethylamino)-3,4-dioxo-1-phenylbutan-2-yl)-1-benzyl-5-oxopyrrolidine-2-carboxamide] was 50 to 100 nM.
